Data from ChEMBL document CHEMBL6127077, “Discovery and biological evaluation of 6-aryl-4-(3,4,5-trimethoxyphenyl)quinoline derivatives with promising antitumor activities as novel colchicine-binding site inhibitors” (Eur J Med Chem, 2024).
Blank lines part the entries; values can stand above or below the compound they belong to. Active and inactive are the calls of the source. The calls are words filed in the database; no cut-off is given here.

How the values were obtained:
[1] = test system: MCF7; assay: cells; conditions: Homo sapiens, MCF7, 72 h
Description: Antiproliferative activity against human MCF7 cells assessed as inhibition of cell growth incubated for 72 hrs by MTT assay

[2] = test system: SGC-7901; assay: Antiproliferative activity against human SGC-7901 cells assessed as inhibition of cell growth incubated for 72 hrs by MTT assay; assay type: functional, cell-based; conditions: SGC-7901, 72 h
[3] = test system: Huh-7; assay: cells; conditions: Homo sapiens, Huh-7, 72 h
Description: Antiproliferative activity against human Huh-7 cells assessed as inhibition of cell growth incubated for 72 hrs by MTT assay

[4] = target: T1, Tubulin (Homo sapiens) (UniProt P68371+Q9H4B7+P0DPH7+P68366+Q13509+Q71U36+P04350+Q3ZCM7+P07437+P68363+Q9BQE3+Q6PEY2+Q13885+Q9BVA1+Q9BUF5); assay: Inhibition of tubulin polymerization (unknown origin) at 5 uM by infinite F500 microplate reader analysis; assay type: protein-complex assay
[5] = test system: Huh-7; assay: Induction of cell cycle arrest in human Huh-7 cells assessed as accumulation of cells at S-phase at 90 nM incubated for 30 to 60 mins by RNase/PI staining based flow cytometry analysis (reference value: 36.54%); assay type: functional; conditions: time 30-60 min
[6] = target: T1, Tubulin (Homo sapiens); assay: Disruption of microtubule network in human Huh-7 cells assessed as shortened microtubule wrap around the nucleus incubated for 24 hrs by DAPI staining based microscopic analysis; assay type: cell-based; conditions: dose 30-60 nM
[7] = test system: Huh-7; assay: Induction of apoptosis in human Huh-7 cells assessed as necrotic cells at 120 nM incubated for 48 hrs by Annexin-V/PI staining based flow cytometry analysis (reference value: 0.60%); assay type: functional
[8] = test system: Huh-7; assay: Induction of apoptosis in human Huh-7 cells assessed as viable cells at 60 nM incubated for 48 hrs by Annexin-V/PI staining based flow cytometry analysis (reference value: 94.8%); assay type: functional; conditions: read-out: Activity
[9] = test system: Huh-7; assay: Induction of apoptosis in human Huh-7 cells assessed as late apoptotic cells at 90 nM incubated for 48 hrs by Annexin-V/PI staining based flow cytometry analysis (reference value: 4.06%); assay type: functional
[10] = test system: Huh-7; assay: Induction of cell cycle arrest in human Huh-7 cells assessed as accumulation of cells at G0/G1 phase at 90 nM incubated for 30 to 60 mins by RNase/PI staining based flow cytometry analysis (reference value: 55.08%); assay type: functional; conditions: time 30-60 min
[11] = test system: Huh-7; assay: Induction of cell cycle arrest in human Huh-7 cells assessed as accumulation of cells at S-phase at 60 nM incubated for 30 to 60 mins by RNase/PI staining based flow cytometry analysis (reference value: 36.54%); assay type: functional; conditions: time 30-60 min
[12] = test system: Huh-7; assay: Induction of apoptosis in human Huh-7 cells assessed as early apoptotic cells at 120 nM incubated for 48 hrs by Annexin-V/PI staining based flow cytometry analysis (reference value: 0.56%); assay type: functional
[13] = test system: Huh-7; assay: Induction of apoptosis in human Huh-7 cells assessed as necrotic cells at 60 nM incubated for 48 hrs by Annexin-V/PI staining based flow cytometry analysis (reference value: 0.60%); assay type: functional
[14] = Cytotoxicity against human HUVEC cells incubated for 72 hrs by MTT assay; assay type: toxicity, cell-based
[15] = test system: Huh-7; assay: Induction of apoptosis in human Huh-7 cells assessed as viable cells at 90 nM incubated for 48 hrs by Annexin-V/PI staining based flow cytometry analysis (reference value: 94.8%); assay type: functional; conditions: read-out: Activity
[16] = Antiproliferative activity against human MCF7/ADM cells assessed as inhibition of cell growth incubated for 72 hrs by MTT assay; assay type: functional, cell-based
[17] = test system: Huh-7; assay: Induction of apoptosis in human Huh-7 cells assessed as late apoptotic cells at 120 nM incubated for 48 hrs by Annexin-V/PI staining based flow cytometry analysis (reference value: 4.06%); assay type: functional
[18] = target: T1, Tubulin (Homo sapiens); assay: Binding affinity to Tubulin (unknown origin) colchicine binding site assessed as reduction in colchicine-tubulin complex formation by Fluorescence based analysis; assay type: protein-complex assay; conditions: dose 2-6 µM
[19] = Toxicity in male BALB/c mouse assessed as liver damage at 15 mg/kg, ip administered every 2 days for 2 weeks by H and E staining based analysis; assay type: organism-based; conditions: in vivo, 336 h
[20] = test system: Huh-7; assay: Induction of cell cycle arrest in human Huh-7 cells assessed as accumulation of cells at G0/G1 phase at 120 nM incubated for 30 to 60 mins by RNase/PI staining based flow cytometry analysis (reference value: 55.08%); assay type: functional; conditions: time 30-60 min
[21] = test system: Huh-7; assay: Induction of cell cycle arrest in human Huh-7 cells assessed as accumulation of cells at G2M phase at 60 nM incubated for 30 to 60 mins by RNase/PI staining based flow cytometry analysis (reference value: 8.38%); assay type: functional; conditions: time 30-60 min
[22] = test system: Huh-7; assay: Induction of cell cycle arrest in human Huh-7 cells assessed as accumulation of cells at G0/G1 phase at 60 nM incubated for 30 to 60 mins by RNase/PI staining based flow cytometry analysis (reference value: 55.08%); assay type: functional; conditions: time 30-60 min
[23] = test system: Huh-7; assay: Antitumor activity against human Huh-7 cells xenografted in male BALB/c mouse at 15 mg/kg, ip administered every 2 days for 2 weeks; assay type: functional, organism-based
[24] = target: T1, Tubulin (Homo sapiens); assay: Inhibition of tubulin polymerization (unknown origin) at 3 to 5 uM by infinite F500 microplate reader analysis; assay type: protein-complex assay; conditions: dose 3-5 µM
[25] = test system: Huh-7; assay: Induction of apoptosis in human Huh-7 cells assessed as early apoptotic cells at 90 nM incubated for 48 hrs by Annexin-V/PI staining based flow cytometry analysis (reference value: 0.56%); assay type: functional
[26] = test system: Huh-7; assay: Induction of apoptosis in human Huh-7 cells assessed as late apoptotic cells at 60 nM incubated for 48 hrs by Annexin-V/PI staining based flow cytometry analysis (reference value: 4.06%); assay type: functional
[27] = test system: Huh-7; assay: Induction of cell cycle arrest in human Huh-7 cells assessed as accumulation of cells at G2M phase at 120 nM incubated for 30 to 60 mins by RNase/PI staining based flow cytometry analysis (reference value: 8.38%); assay type: functional; conditions: time 30-60 min
[28] = test system: Huh-7; assay: Induction of apoptosis in human Huh-7 cells assessed as early apoptotic cells at 60 nM incubated for 48 hrs by Annexin-V/PI staining based flow cytometry analysis (reference value: 0.56%); assay type: functional
[29] = test system: Huh-7; assay: Induction of cell cycle arrest in human Huh-7 cells assessed as accumulation of cells at G2M phase at 90 nM incubated for 30 to 60 mins by RNase/PI staining based flow cytometry analysis (reference value: 8.38%); assay type: functional; conditions: time 30-60 min
[30] = test system: Huh-7; assay: Induction of cell cycle arrest in human Huh-7 cells assessed as accumulation of cells at S-phase at 120 nM incubated for 30 to 60 mins by RNase/PI staining based flow cytometry analysis (reference value: 36.54%); assay type: functional; conditions: time 30-60 min
[31] = test system: Huh-7; assay: Induction of apoptosis in human Huh-7 cells assessed as necrotic cells at 90 nM incubated for 48 hrs by Annexin-V/PI staining based flow cytometry analysis (reference value: 0.60%); assay type: functional
[32] = test system: Huh-7; assay: Induction of apoptosis in human Huh-7 cells assessed as viable cells at 120 nM incubated for 48 hrs by Annexin-V/PI staining based flow cytometry analysis (reference value: 94.8%); assay type: functional; conditions: read-out: Activity
[33] = target: T1, Tubulin (Homo sapiens); assay: Inhibition of tubulin polymerization (unknown origin) by infinite F500 microplate reader analysis; assay type: protein-complex assay; conditions: dose 3-5 µM
[34] = Toxicity in male BALB/c mouse assessed as body weight loss at 15 mg/kg, ip administered every 2 days for 2 weeks; assay type: organism-based; conditions: in vivo, 336 h

Compound: COc1cc(-c2ccnc3ccc(-c4ccc(F)cc4)cc23)cc(OC)c1OC
- IC50 [1]: 17.1 µM
- IC50 [2]: 10.5 µM
- IC50 [3]: 5.15 µM

Compound: CC(=O)O[C@H]1C(=O)[C@@]2(C)[C@H]([C@H](OC(=O)c3ccccc3)[C@]3(O)C[C@H](OC(=O)[C@H](O)[C@@H](NC(=O)c4ccccc4)c4ccccc4)C(C)=C1C3(C)C)[C@]1(OC(C)=O)CO[C@@H]1C[C@@H]2O
- inhibition [4]: Active

Compound: COc1cc(-c2ccnc3ccc(-c4ccc(O)cc4)cc23)cc(OC)c1OC
- IC50 [1]: > 100 µM
- IC50 [2]: 1.91 µM
- IC50 [3]: 0.32 µM

Compound: COc1cc(-c2ccnc3ccc(-c4ccc(Cl)cc4)cc23)cc(OC)c1OC
- IC50 [1]: 16.2 µM
- IC50 [2]: 12.1 µM
- IC50 [3]: 4.56 µM

Compound: COc1cc(-c2ccnc3ccc(-c4ccccc4C)cc23)cc(OC)c1OC
- IC50 [1]: > 100 µM
- IC50 [2]: > 100 µM
- IC50 [3]: 39.8 µM

Compound: COc1cccc(-c2ccc3nccc(-c4cc(OC)c(OC)c(OC)c4)c3c2)c1
- IC50 [1]: 17.5 µM
- IC50 [2]: 7.83 µM
- IC50 [3]: 3.36 µM

Compound: COc1cc(-c2ccnc3ccc(-c4cccc(C)c4)cc23)cc(OC)c1OC
- IC50 [1]: 17.9 µM
- IC50 [2]: 35 µM
- IC50 [3]: 1.32 µM

Compound: COc1ccc(/C=C\c2cc(OC)c(OC)c(OC)c2)cc1O [COMBRETASTATIN A4]
- Activity [6]: Dose-Dependent Effect
- IC50 [1]: 0.087 µM
- IC50 at 72 h [14]: 0.32 µM
- IC50 [16]: 2 µM
- IC50 [2]: 0.12 µM
- IC50 [3]: 0.079 µM

Compound: COc1ccccc1-c1ccc2nccc(-c3cc(OC)c(OC)c(OC)c3)c2c1
- IC50 [1]: > 100 µM
- IC50 [2]: 17.3 µM
- IC50 [3]: 4.69 µM

Compound: COc1cc(-c2ccnc3ccc(-c4cccnc4)cc23)cc(OC)c1OC
- IC50 [1]: 22.1 µM
- IC50 [2]: 9.11 µM
- IC50 [3]: 4.58 µM

Compound: COc1cc(-c2ccnc3ccc(-c4ccncc4)cc23)cc(OC)c1OC
- IC50 [1]: 44.5 µM
- IC50 [2]: > 100 µM
- IC50 [3]: > 100 µM

Compound: COc1cc(-c2ccnc3ccc(-c4ccc5ccccc5c4)cc23)cc(OC)c1OC
- IC50 [1]: > 100 µM
- IC50 [2]: 1.36 µM
- IC50 [3]: 4.45 µM

Compound: COc1cc(-c2ccnc3ccc(-c4ccc([N+](=O)[O-])cc4)cc23)cc(OC)c1OC
- IC50 [1]: > 100 µM
- IC50 [2]: 20.3 µM
- IC50 [3]: 8.22 µM

Compound: COc1cc(-c2ccnc3ccc(-c4ccc(C#N)cc4)cc23)cc(OC)c1OC
- IC50 [1]: > 100 µM
- IC50 [2]: 7.33 µM
- IC50 [3]: 3.41 µM

More lines, main results first:

- IC50 [1]: 1.36 µM
- IC50 [2]: 0.6 µM
- IC50 [3]: 1.15 µM
Compound: COc1cc(-c2ccnc3ccc(-c4ccc(C)cc4)cc23)cc(OC)c1OC

- IC50 [1]: 2.24 µM
- IC50 [2]: 1.78 µM
- IC50 [3]: 0.27 µM
Compound: COc1cc(-c2ccnc3ccc(-c4ccsc4)cc23)cc(OC)c1OC

- IC50 [1]: 1.34 µM
- IC50 [2]: 2.15 µM
- IC50 [3]: 3.67 µM
Compound: COc1cc(-c2ccnc3ccc(-c4ccc(C)c(C)c4)cc23)cc(OC)c1OC

- IC50 [1]: 3.62 µM
- IC50 [2]: 25.3 µM
- IC50 [3]: 0.12 µM
Compound: COc1ccc(-c2ccc3nccc(-c4cc(OC)c(OC)c(OC)c4)c3c2)cc1O

- IC50 [1]: 0.33 µM
- IC50 [2]: 1.38 µM
- IC50 [3]: 0.04 µM
Compound: COc1ccc(-c2ccc3nccc(-c4cc(OC)c(OC)c(OC)c4)c3c2)cc1

- Activity [6]: Dose-Dependent Effect
- IC50 [1]: 0.13 µM
- Activity [18]: Dose-Dependent Effect
- inhibition [24]: Active
- IC50 [2]: 0.18 µM
- IC50 [3]: 0.03 µM
- inhibition [33]: Dose-Dependent Effect
Compound: COc1cc(-c2ccnc3ccc(-c4cccc5[nH]ccc45)cc23)cc(OC)c1OC
- Activity [5]: 24.65%
- Activity [7]: 2.45%
- viability at 0.06 µM [8]: 91.1%
- Activity [9]: 20.1%
- Activity [10]: 47.21%
- Activity [11]: 37.41%
- Activity [12]: 4.73%
- Activity [13]: 1.58%
- IC50 at 72 h [14]: 5.82 µM
- viability at 0.09 µM [15]: 72.5%
- IC50 [16]: 0.52 µM
- Activity [17]: 29.3%
- Activity [19]: Non-Toxic
- Activity [20]: 9.25%
- Activity [21]: 9.39%
- Activity [22]: 53.2%
- Activity [23]: Active
- Activity [25]: 4.05%
- Activity [26]: 6.27%
- Activity [27]: 48.72%
- Activity [28]: 1.05%
- Activity [29]: 28.14%
- Activity [30]: 42.03%
- Activity [31]: 3.39%
- viability at 0.12 µM [32]: 63.5%
- Activity [34]: Non-Toxic

- IC50 [1]: 1.43 µM
- IC50 [2]: 7.92 µM
- IC50 [3]: 1.15 µM
Compound: COc1cc(-c2ccnc3ccc(-c4ccccc4)cc23)cc(OC)c1OC

- IC50 [1]: 3.11 µM
- IC50 [2]: 3.87 µM
- IC50 [3]: 0.42 µM
Compound: CCOc1ccc(-c2ccc3nccc(-c4cc(OC)c(OC)c(OC)c4)c3c2)cc1

- IC50 [1]: 0.96 µM
- IC50 [2]: 0.88 µM
- IC50 [3]: 0.08 µM
Compound: COc1ccc(-c2ccc3nccc(-c4cc(OC)c(OC)c(OC)c4)c3c2)cc1OC
